We go through 15 molecules from patent publication US10538555B2, “Macrocyclic inhibitors of the PD-1/PD-L1 and CD80(B7-1)/PD-L1 protein/protein interactions” (BRISTOL-MYERS SQUIBB COMPANY, priority 2014, dated 2020).

Where a SMILES comes first, the peptide text is derived from it. Bridges are numbered along the chain shown (N, C = ends). [ ]: non-standard residue; d: D form. ξ: configuration not given here. Trp(1-CH2COOH) = N[C@@H](Cc1cn(CC(=O)O)c2ccccc12)C(=O)O; Hyp = O=C(O)[C@@H]1C[C@@H](O)CN1; NMeNle = CCCC[C@H](NC)C(=O)O; NMeA = CN[C@@H](C)C(=O)O; Dab = NCC[C@H](N)C(=O)O; Dap = NC[C@H](N)C(=O)O; ξP = O=C(O)C1CCCN1; Sar = CNCC(=O)O

The experiment has as its target T1, Human PD-L1/PD-1 (Homo sapiens, UniProt Q9NZQ7).
T1 construct: TVMV protease cleavage site (C); made in house; host or cells: HEK293T cells
Kind of experiment: HTRF Human PD-L1/PD-1 binding assay (PD-1-Ig/PD-L1-His). To be noted: PD-L1-His 10 nM, PD-1-Ig 20 nM; class symbol; read-out: HTRF Human PD-L1/PD-1 Binding Assay IC50 Range. The procedure, abridged: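 Truncated Fc-fused human PD-1 (aa 25-167) at 20 nM and His-tagged PD-L1 (aa 18-239) at 10 nM final are used, with peptides preincubated 15 min with PD-L1. Detection uses europium-cryptate anti-Ig and APC anti-His antibodies; 665/620 nm ratio.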

T1 sequence (Q9NZQ7 with tags, fused parts or gaps): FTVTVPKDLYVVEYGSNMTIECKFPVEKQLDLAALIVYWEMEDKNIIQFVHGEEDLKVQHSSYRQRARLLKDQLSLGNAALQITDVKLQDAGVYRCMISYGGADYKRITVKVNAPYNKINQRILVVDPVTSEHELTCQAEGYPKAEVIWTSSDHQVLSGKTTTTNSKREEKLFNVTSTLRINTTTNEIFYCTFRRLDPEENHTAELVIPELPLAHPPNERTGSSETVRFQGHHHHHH

For the molecule `CCCC[C@H]1C(=O)N(C)[C@@H](CCCC)C(=O)N[C@@H](CCC(=O)O)C(=O)N[C@H](C(=O)NCC(N)=O)CSCC(=O)N[C@@H](Cc2ccc(O)cc2)C(=O)N(C)[C@@H](C)C(=O)N[C@@H](CC(N)=O)C(=O)N2CCC[C@H]2C(=O)N[C@@H](CN)C(=O)N[C@@H](CC(C)C)C(=O)N2C[C@H](O)C[C@H]2C(=O)N[C@@H](Cc2c[nH]c3ccccc23)C(=O)N[C@@H](CO)C(=O)N[C@@H](Cc2cn(CC(=O)O)c3ccccc23)C(=O)N1C` [Example 6137] ({CH2CO}-Y[NMeA]NP[Dap]L[Hyp]WS[Trp(1-CH2COOH)][NMeNle][NMeNle]ECG-NH2; thioether N-14), the IC50 fell in the range of 10 to 99.9 nM.

With `CCCC[C@H]1C(=O)N(C)[C@@H](CCCC)C(=O)N[C@@H](CN)C(=O)N[C@H](C(N)=O)CSCC(=O)N[C@@H](Cc2ccc(O)cc2)C(=O)N(C)[C@@H](C)C(=O)N[C@@H](CC(N)=O)C(=O)N2CCC[C@H]2C(=O)N[C@@H](CN)C(=O)N[C@@H](CC(C)C)C(=O)N2C[C@H](O)C[C@H]2C(=O)N[C@@H](Cc2c[nH]c3ccccc23)C(=O)N[C@@H](CO)C(=O)N[C@@H](Cc2cn(CC(=O)O)c3ccccc23)C(=O)N1C` [Example 6140], the IC50 fell in the range of 1 to 9.9 nM.

As to `CCCC[C@H]1C(=O)N(C)[C@@H](CCCC)C(=O)N[C@@H](CC(C)C)C(=O)N[C@H](C(=O)NCC(N)=O)CSCC(=O)N[C@@H](Cc2ccc(O)cc2)C(=O)N(C)[C@@H](C)C(=O)N[C@@H](CC(=O)O)C(=O)N2CCC[C@H]2C(=O)N[C@@H](Cc2cnc[nH]2)C(=O)N[C@@H](CCC(=O)O)C(=O)N2C[C@H](O)C[C@H]2C(=O)N[C@@H](Cc2c[nH]c3ccccc23)C(=O)N[C@@H](CCN)C(=O)N[C@@H](Cc2cn(CC(=O)O)c3ccccc23)C(=O)N1C` [Example 6141] ({CH2CO}-Y[NMeA]DPHE[Hyp]W[Dab][Trp(1-CH2COOH)][NMeNle][NMeNle]LCG-NH2; thioether N-14), the IC50 fell in the range of 1 to 9.9 nM.

For the molecule `CCCC[C@H]1C(=O)N(C)[C@@H](CCCC)C(=O)N[C@@H](CC(C)C)C(=O)N[C@H](C(=O)NCC(N)=O)CSCC(=O)N[C@@H](Cc2ccc(O)cc2)C(=O)N(C)[C@@H](C)C(=O)N[C@@H](CC(N)=O)C(=O)N2CCC[C@H]2C(=O)N[C@@H](CN)C(=O)N[C@@H](CCC(=O)O)C(=O)N2C[C@H](O)C[C@H]2C(=O)N[C@@H](Cc2c[nH]c3ccccc23)C(=O)N[C@@H](CCN)C(=O)N[C@@H](Cc2cn(CC(=O)O)c3ccccc23)C(=O)N1C` [Example 6146] ({CH2CO}-Y[NMeA]NP[Dap]E[Hyp]W[Dab][Trp(1-CH2COOH)][NMeNle][NMeNle]LCG-NH2; thioether N-14), the IC50 lay within 1 to 9.9 nM.

For the molecule `CCCC[C@H]1C(=O)N(C)[C@@H](CCCC)C(=O)N[C@@H](CC(C)C)C(=O)N[C@H](C(=O)NCC(N)=O)CSCC(=O)N[C@@H](Cc2ccc(O)cc2)C(=O)N(C)[C@@H](C)C(=O)N[C@@H](CC(=O)O)C(=O)N2CCC[C@H]2C(=O)N[C@@H](Cc2cnc[nH]2)C(=O)N[C@@H](CCCCN)C(=O)N2C[C@H](O)C[C@H]2C(=O)N[C@@H](Cc2c[nH]c3ccccc23)C(=O)N[C@@H](CCCCN)C(=O)N[C@@H](Cc2cn(CC(=O)O)c3ccccc23)C(=O)N1C` [Example 6156] ({CH2CO}-Y[NMeA]DPHK[Hyp]WK[Trp(1-CH2COOH)][NMeNle][NMeNle]LCG-NH2; thioether N-14), the IC50 is 1 to 9.9 nM.

Regarding `CCCC[C@H]1C(=O)N(C)[C@@H](CCCC)C(=O)N[C@@H](C)C(=O)N[C@H](C(=O)NCC(N)=O)CSCC(=O)N[C@@H](Cc2ccc(O)cc2)C(=O)N(C)[C@@H](C)C(=O)N[C@@H](CC(=O)O)C(=O)N2CCC[C@H]2C(=O)N[C@@H](Cc2cnc[nH]2)C(=O)N[C@@H](CCC(N)=O)C(=O)N2C[C@H](O)C[C@H]2C(=O)N[C@@H](Cc2c[nH]c3ccccc23)C(=O)N[C@@H](CCN)C(=O)N[C@@H](Cc2cn(CC(=O)O)c3ccccc23)C(=O)N1C` [Example 6158] ({CH2CO}-Y[NMeA]DPHQ[Hyp]W[Dab][Trp(1-CH2COOH)][NMeNle][NMeNle]ACG-NH2; thioether N-14), the IC50 lay in the range of 1 to 9.9 nM.

For the molecule `CCCC[C@H]1C(=O)N(C)[C@@H](CCCC)C(=O)N[C@@H](CC(C)C)C(=O)N[C@H](C(=O)NCC(N)=O)CSCC(=O)N[C@@H](Cc2ccc(O)cc2)C(=O)N(C)[C@@H](C)C(=O)N[C@@H](CC(N)=O)C(=O)N2CCCC2C(=O)N[C@@H](Cc2cnc[nH]2)C(=O)N[C@@H](CCC(N)=O)C(=O)N[C@H](C)C(=O)N[C@@H](Cc2c[nH]c3ccccc23)C(=O)N[C@@H](CO)C(=O)N[C@@H](Cc2c[nH]c3ccccc23)C(=O)N1C` (stereo partly drawn) [Example 6168] ({CH2CO}-Y[NMeA]N[ξP]HQ[dA]WSW[NMeNle][NMeNle]LCG-NH2; thioether N-14), the IC50 is 10 to 99.9 nM.

In the case of `CCCC[C@H]1C(=O)N(C)[C@@H](CCCC)C(=O)N[C@@H](CC(C)C)C(=O)N[C@H](C(=O)NCC(N)=O)CSCC(=O)N[C@@H](Cc2ccc(O)cc2)C(=O)N(C)[C@@H](C)C(=O)N[C@@H](CC(N)=O)C(=O)N2CCC[C@H]2C(=O)N[C@@H](CN)C(=O)N[C@@H](CC(C)C)C(=O)N(C)CC(=O)N[C@@H](Cc2c[nH]c3ccccc23)C(=O)N[C@@H](CCN)C(=O)N[C@@H](Cc2cn(CC(=O)O)c3ccccc23)C(=O)N1C` [Example 6170] ({CH2CO}-Y[NMeA]NP[Dap]L[Sar]W[Dab][Trp(1-CH2COOH)][NMeNle][NMeNle]LCG-NH2; thioether N-14), the IC50 is 1 to 9.9 nM.

In the case of `CCCC[C@H]1C(=O)N(C)[C@@H](CCCC)C(=O)N[C@@H](CCC(=O)O)C(=O)N[C@H](C(=O)NCC(N)=O)CSCC(=O)N[C@@H](Cc2ccc(O)cc2)C(=O)N(C)[C@@H](C)C(=O)N[C@@H](CC(=O)O)C(=O)N2CCCC2C(=O)N[C@@H](CN)C(=O)N[C@@H](CCC(=O)O)C(=O)N2C[C@H](O)C[C@H]2C(=O)N[C@@H](Cc2c[nH]c3ccccc23)C(=O)N[C@@H](CCN)C(=O)N[C@@H](Cc2cn(CC(=O)O)c3ccccc23)C(=O)N1C` (stereo partly drawn) [Example 6172] ({CH2CO}-Y[NMeA]D[ξP][Dap]E[Hyp]W[Dab][Trp(1-CH2COOH)][NMeNle][NMeNle]ECG-NH2; thioether N-14), the IC50 was in the range of 1 to 9.9 nM.

Regarding `CCCC[C@H]1C(=O)N(C)[C@@H](CCCC)C(=O)N[C@@H](CC(C)C)C(=O)N[C@H](C(=O)NCC(N)=O)CSCC(=O)N[C@@H](Cc2ccc(O)cc2)C(=O)N(C)[C@@H](C)C(=O)N[C@@H](CC(N)=O)C(=O)N2CCC[C@H]2C(=O)N[C@@H](Cc2cnc[nH]2)C(=O)N[C@@H](CCC(N)=O)C(=O)N2C[C@H](O)C[C@H]2C(=O)N[C@@H](Cc2c[nH]c3ccccc23)C(=O)N[C@@H](CO)C(=O)N[C@@H](Cc2cn(CC(=O)O)c3ccccc23)C(=O)N1C` [Example 6176] ({CH2CO}-Y[NMeA]NPHQ[Hyp]WS[Trp(1-CH2COOH)][NMeNle][NMeNle]LCG-NH2; thioether N-14), the IC50 lay in the range of 10 to 99.9 nM.

Take `CCCC[C@H]1C(=O)N(C)[C@@H](CCCC)C(=O)N[C@@H](CC(C)C)C(=O)N[C@H](C(N)=O)CSCC(=O)N[C@@H](Cc2ccc(O)cc2)C(=O)N(C)[C@@H](C)C(=O)N[C@@H](CC(N)=O)C(=O)N2CCC[C@H]2C(=O)N[C@@H](CN)C(=O)N[C@@H](CC(C)C)C(=O)N2C[C@H](O)C[C@H]2C(=O)N[C@@H](Cc2c[nH]c3ccccc23)C(=O)N[C@@H](CO)C(=O)N[C@@H](Cc2cn(CC(=O)O)c3ccccc23)C(=O)N1C` [Example 6180] ({CH2CO}-Y[NMeA]NP[Dap]L[Hyp]WS[Trp(1-CH2COOH)][NMeNle][NMeNle]LC-NH2; thioether N-14): the IC50 lay in the range of 1 to 9.9 nM.

As to `CCCC[C@H]1C(=O)N(C)[C@@H](CCCC)C(=O)N[C@@H](CCC(=O)O)C(=O)N[C@H](C(=O)NCC(N)=O)CSCC(=O)N[C@@H](Cc2ccc(O)cc2)C(=O)N(C)[C@@H](C)C(=O)N[C@@H](CC(=O)O)C(=O)N2CCC[C@H]2C(=O)N[C@@H](CN)C(=O)N[C@@H](CCC(N)=O)C(=O)N2C[C@H](O)C[C@H]2C(=O)N[C@@H](Cc2c[nH]c3ccccc23)C(=O)N[C@@H](CCN)C(=O)N[C@@H](Cc2cn(CC(=O)O)c3ccccc23)C(=O)N1C` [Example 6189] ({CH2CO}-Y[NMeA]DP[Dap]Q[Hyp]W[Dab][Trp(1-CH2COOH)][NMeNle][NMeNle]ECG-NH2; thioether N-14), the IC50 lay within 1 to 9.9 nM.

Turning to `CCCC[C@H]1C(=O)N(C)[C@@H](CCCC)C(=O)N[C@@H](CCCNC(=N)N)C(=O)N[C@H](C(=O)NCC(N)=O)CSCC(=O)N[C@@H](Cc2ccc(O)cc2)C(=O)N(C)[C@@H](C)C(=O)N[C@@H](CC(N)=O)C(=O)N2CCC[C@H]2C(=O)N[C@@H](Cc2cnc[nH]2)C(=O)N[C@@H](CO)C(=O)N2C[C@H](O)C[C@H]2C(=O)N[C@@H](Cc2c[nH]c3ccccc23)C(=O)N[C@@H](CO)C(=O)N[C@@H](Cc2cn(CC(=O)O)c3ccccc23)C(=O)N1C` [Example 6202] ({CH2CO}-Y[NMeA]NPHS[Hyp]WS[Trp(1-CH2COOH)][NMeNle][NMeNle]RCG-NH2; thioether N-14), the IC50 was in the range of 10 to 99.9 nM.

Turning to `CCCC[C@H]1C(=O)N(C)[C@@H](CCCC)C(=O)N[C@@H](CC(C)C)C(=O)N[C@H](C(N)=O)CSCC(=O)N[C@@H](Cc2ccc(O)cc2)C(=O)N(C)[C@@H](C)C(=O)N[C@@H](CC(N)=O)C(=O)N2CCC[C@H]2C(=O)N[C@@H](CN)C(=O)N[C@@H](CC(C)C)C(=O)N2C[C@H](O)C[C@H]2C(=O)N[C@@H](Cc2c[nH]c3ccccc23)C(=O)N[C@@H](CCC(=O)O)C(=O)N[C@@H](Cc2cn(CC(=O)O)c3ccccc23)C(=O)N1C` [Example 6203] ({CH2CO}-Y[NMeA]NP[Dap]L[Hyp]WE[Trp(1-CH2COOH)][NMeNle][NMeNle]LC-NH2; thioether N-14), the IC50 fell in the range of 1 to 9.9 nM.

For the molecule `CCCC[C@H]1C(=O)N(C)[C@@H](CCCC)C(=O)N[C@@H](CC(C)C)C(=O)N[C@H](C(=O)NCC(N)=O)CSCC(=O)N[C@@H](Cc2ccc(O)cc2)C(=O)N(C)[C@@H](C)C(=O)N[C@@H](CC(N)=O)C(=O)N2CCC[C@H]2C(=O)N[C@@H](Cc2cnc[nH]2)C(=O)N[C@@H](CCCCN)C(=O)N2C[C@H](O)C[C@H]2C(=O)N[C@@H](Cc2c[nH]c3ccccc23)C(=O)N[C@@H](CCCCN)C(=O)N[C@@H](Cc2cn(CC(=O)O)c3ccccc23)C(=O)N1C` [Example 6204] ({CH2CO}-Y[NMeA]NPHK[Hyp]WK[Trp(1-CH2COOH)][NMeNle][NMeNle]LCG-NH2; thioether N-14), the IC50 was 1 to 9.9 nM.
